≈ marks a conversion by molar mass, not a printed value.
Assays:
[1] = test system: HeLa; experiment: Antiviral activity against Rhinovirus (RV-14) in HeLa cells using CPE/XTT assay; type: functional, cell-based; conditions: Homo sapiens
[2] = test system: HeLa; experiment: Antiviral activity against Rhinovirus (RV-2) in HeLa cells using CPE/XTT assay; type: functional, cell-based; conditions: Homo sapiens
[3] = test system: HeLa; experiment: Antiviral activity against Rhinovirus (RV-16) in HeLa cells using CPE/XTT assay; type: functional, cell-based; conditions: Homo sapiens
[4] = test system: HeLa; experiment: Antiviral activity against Coxsackievirus (CoxA21) in HeLa cells using CPE/XTT assay; type: functional, cell-based; conditions: Homo sapiens
[5] = test system: HeLa; experiment: Antiviral activity against Poliovirus (PV-1) in HeLa cells using CPE/XTT assay; type: functional, cell-based; conditions: Homo sapiens
[6] = test system: HeLa; experiment: Antiviral activity against Rhinovirus (RV-2) in HeLa cells using CPE/XTT assay in HeLa cells using CPE/XTT assay; type: functional, cell-based; conditions: Homo sapiens
[7] = test system: HeLa; experiment: Antiviral activity against Coxsackie virus (CoxA21) in HeLa cells using CPE/XTT assay; type: functional, cell-based; conditions: Homo sapiens
[8] = test system: BSC-1; experiment: Antiviral activity against Poliovirus (PV-1) using plaque reduction assay using BSC1 cells; type: functional, cell-based, Cercopithecidae; conditions: Chlorocebus aethiops
[9] = test system: BSC-1; experiment: Antiviral activity against Poliovirus (PV-1) using plaque reduction assay in BSC1 cells; type: functional, cell-based, Cercopithecidae; conditions: Chlorocebus aethiops

| SMILES | IC50 [1] | IC50 [2] | IC50 [3] | IC50 [4] | IC50 [5] | IC50 [6] | IC50 [7] | IC50 [8] | IC50 [9] |
| --- | --- | --- | --- | --- | --- | --- | --- | --- | --- |
| CSc1nc2ccc(/C(=N/O)c3ccccc3)cc2n1S(=O)(=O)C(C)C | 0.76 mg/L (≈ 1.95 µM) | 0.69 mg/L (≈ 1.77 µM) | 0.18 mg/L (≈ 0.462 µM) | 0.18 mg/L (≈ 0.462 µM) | 0.59 mg/L (≈ 1.51 µM) | – | – | – | – |
| CC(C)S(=O)(=O)n1cnc2ccc(/C(=N/O)c3ccccc3)cc21 | 0.53 mg/L (≈ 1.54 µM) | – | 0.16 mg/L (≈ 0.466 µM) | 0.12 mg/L (≈ 0.349 µM) | 0.57 mg/L (≈ 1.66 µM) | 0.19 mg/L (≈ 0.553 µM) | – | – | – |
| COc1nc2ccc(/C(=N/O)c3ccccc3)cc2n1S(=O)(=O)C(C)C | 0.48 mg/L (≈ 1.29 µM) | 0.54 mg/L (≈ 1.45 µM) | 0.18 mg/L (≈ 0.482 µM) | 0.17 mg/L (≈ 0.455 µM) | 0.57 mg/L (≈ 1.53 µM) | – | – | – | – |
| CC(C)S(=O)(=O)n1c(N)nc2ccc(/C(=N/O)c3ccccc3)cc21 [ENVIROXIME] | 0.04 mg/L (≈ 0.112 µM) | 0.07 mg/L (≈ 0.195 µM) | 0.04 mg/L (≈ 0.112 µM) | – | 0.06 mg/L (≈ 0.167 µM) | – | 0.05 mg/L (≈ 0.139 µM) | 0.02 mg/L (≈ 0.0558 µM) | – |
| CC(C)S(=O)(=O)n1c(N(C)C)nc2ccc(/C(=N/O)c3ccccc3)cc21 | 49 mg/L (≈ 127 µM) | 30.3 mg/L (≈ 78.4 µM) | 0.64 mg/L (≈ 1.66 µM) | 2.19 mg/L (≈ 5.67 µM) | 4.55 mg/L (≈ 11.8 µM) | – | – | – | – |
| Cc1nc2ccc(/C(=N/O)c3ccccc3)cc2n1S(=O)(=O)C(C)C | 0.34 mg/L (≈ 0.951 µM) | 0.24 mg/L (≈ 0.671 µM) | 0.18 mg/L (≈ 0.504 µM) | 0.05 mg/L (≈ 0.14 µM) | 0.23 mg/L (≈ 0.643 µM) | – | – | – | – |
| CNc1nc2ccc(/C(=N/O)c3ccccc3)cc2n1S(=O)(=O)C(C)C | 24.4 mg/L (≈ 65.5 µM) | 54.8 mg/L (≈ 147 µM) | 1.49 mg/L (≈ 4 µM) | 7.11 mg/L (≈ 19.1 µM) | 6.16 mg/L (≈ 16.5 µM) | – | – | – | – |
| CC(C)n1c(N)nc2ccc(/C(=N/O)c3ccccc3)cc21 | – | – | – | – | – | – | – | – | 0.09 mg/L (≈ 0.306 µM) |

Source: ChEMBL document CHEMBL1130192, “Synthesis and antiviral activity of C2 analogs of enviroxime: an exploration of the role of critical functionality” (J Med Chem, 1997)
